Reference: PubChem BioAssay (NCI)
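A five-concentration, 48-hour dose response in 96-well plates underlies each endpoint, interpolated linearly between surrounding concentrations. TGI is the concentration that stops growth completely.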

Legend:
Experiment in all cases: NCI tumour cell line growth inhibition, 48 h
[1] = tested on: NCI-H522 lung
[2] = tested on: NCI-H23 lung
[3] = tested on: RPMI-8226 leukemia
[4] = tested on: HL-60(TB) leukemia
[5] = tested on: MDA-MB-435
[6] = tested on: DU-145 prostate
[7] = tested on: A498 renal
[8] = tested on: SK-MEL-5 melanoma
[9] = tested on: IGROV1 ovarian
[10] = tested on: HOP-62 NSCLC
[11] = tested on: PC-3 prostate
[12] = tested on: SF-295 CNS
[13] = tested on: SK-MEL-2 melanoma
[14] = tested on: MDA-N
[15] = tested on: UO-31 renal
[16] = tested on: OVCAR-4 ovarian
[17] = tested on: BT-549 breast
[18] = tested on: MALME-3M melanoma
[19] = tested on: NCI/ADR-RES ovarian
[20] = tested on: 786-0 renal
[21] = tested on: OVCAR-5 ovarian
[22] = tested on: COLO 205 colon
[23] = tested on: UACC-257 melanoma
[24] = tested on: LOX IMVI melanoma
[25] = tested on: K-562 leukemia
[26] = tested on: SK-MEL-28 melanoma
[27] = tested on: OVCAR-3 ovarian
[28] = tested on: MOLT-4 leukemia
[29] = tested on: OVCAR-8 ovarian
[30] = tested on: CAKI-1 renal
[31] = tested on: HOP-92 NSCLC
[32] = tested on: HCT-15 colon
[33] = tested on: HCT-116 colon
[34] = tested on: NCI-H460 lung
[35] = tested on: ACHN renal
[36] = tested on: U251 CNS
[37] = tested on: A549 NSCLC
[38] = tested on: HCC-2998 colon
[39] = tested on: UACC-62 melanoma
[40] = tested on: SNB-19 CNS
[41] = tested on: SR leukemia
[42] = tested on: TK-10 renal
[43] = tested on: KM12 colon
[44] = tested on: HT29 colon
[45] = tested on: SF-268 CNS
[46] = tested on: MDA-MB-231 breast
[47] = tested on: SF-539 CNS
[48] = tested on: MCF7 breast
[49] = tested on: SW-620 colon
[50] = tested on: M14 melanoma
[51] = tested on: HS 578T breast
[52] = tested on: EKVX NSCLC
[53] = tested on: NCI-H226 lung
[54] = tested on: CCRF-CEM leukemia
[55] = tested on: SNB-75 CNS
[56] = tested on: T-47D breast
[57] = tested on: SN12C renal
[58] = tested on: SK-OV-3 ovarian

`C=CCNC(=O)/C(Cc1cc(Br)c(OC)c(Br)c1O)=N\O` was tested, and the TGI [1] was 6.07 µM, the TGI [2] was 18.1 µM and the TGI [3] was > 100 µM. It also gave a TGI [4] of 5.43 µM, a TGI [5] of 2.69 µM and a TGI [6] of 25.1 µM. For the same compound, the TGI [7] was 46.7 µM, the TGI [8] was 11.6 µM and the TGI [9] was 47.8 µM. For the same compound, the TGI [10] was 22.9 µM, the TGI [11] was > 100 µM and the TGI [12] was 21.5 µM. For the same compound, the TGI [13] was 44.5 µM, the TGI [14] was 1.07 µM and the TGI [15] was 15.6 µM. The TGI [16] was 84.6 µM, the TGI [17] was 18.3 µM and the TGI [18] was 17.3 µM. The TGI [19] was 11.4 µM, the TGI [20] was 7.28 µM and the TGI [21] was 34.4 µM. It also gave a TGI [22] of 26 µM, a TGI [23] of 27.1 µM and a TGI [24] of 55 µM. For the same compound, the TGI [25] was > 100 µM, the TGI [26] was 31 µM and the TGI [27] was 10.7 µM. The TGI [28] was > 100 µM, the TGI [29] was 20.9 µM and the TGI [30] was 33.7 µM. The TGI [31] was 24.1 µM, the TGI [32] was 21.7 µM and the TGI [33] was 12.7 µM. The TGI [34] was 15.9 µM, the TGI [35] was > 100 µM and the TGI [36] was 39.8 µM. The TGI [37] was 53.4 µM, the TGI [38] was 14.2 µM and the TGI [39] was 34.8 µM. The TGI [40] was 58.9 µM, the TGI [41] was > 100 µM and the TGI [42] was 64.8 µM. The TGI [43] was 19.8 µM, the TGI [44] was 35 µM and the TGI [45] was 15.7 µM. For the same compound, the TGI [46] was 32.6 µM, the TGI [47] was 14.6 µM and the TGI [48] was > 100 µM. It also gave a TGI [49] of 26.4 µM, a TGI [50] of 23.6 µM and a TGI [51] of 4.23 µM. The TGI [52] was 25.2 µM and the TGI [53] was 23.4 µM.
With `C[C@H]1C(OCCOC2O[C@@H]3O[C@@]4(C)CC[C@H]5[C@H](C)CCC([C@H]2C)[C@@]35O4)O[C@@H]2O[C@@]3(C)CC[C@H]4[C@H](C)CCC1[C@@]24O3` (stereo not given in full) the TGI [2] was > 100 µM, the TGI [54] was 82.5 µM and the TGI [3] was > 100 µM. For the same compound, the TGI [4] was 74.9 µM, the TGI [5] was > 100 µM and the TGI [6] was 74.3 µM. For the same compound, the TGI [7] was > 100 µM, the TGI [8] was 32.2 µM and the TGI [9] was 90.6 µM. The TGI [10] was > 100 µM, the TGI [11] was > 100 µM and the TGI [13] was 42.3 µM. For the same compound, the TGI [14] was > 100 µM, the TGI [16] was > 100 µM and the TGI [17] was > 100 µM. The TGI [18] was 41.5 µM, the TGI [19] was > 100 µM and the TGI [20] was > 100 µM. For the same compound, the TGI [21] was > 100 µM, the TGI [22] was 37.7 µM and the TGI [23] was > 100 µM. For the same compound, the TGI [24] was 57.5 µM, the TGI [25] was > 100 µM and the TGI [55] was 81.7 µM. The TGI [26] was > 100 µM, the TGI [27] was > 100 µM and the TGI [28] was > 100 µM. For the same compound, the TGI [29] was > 100 µM, the TGI [30] was > 100 µM and the TGI [56] was 37.5 µM. For the same compound, the TGI [31] was > 100 µM, the TGI [32] was > 100 µM and the TGI [57] was 52.6 µM. The TGI [33] was 78.6 µM, the TGI [34] was > 100 µM and the TGI [35] was > 100 µM. The TGI [36] was > 100 µM, the TGI [37] was > 100 µM and the TGI [38] was 43.7 µM. For the same compound, the TGI [39] was > 100 µM, the TGI [40] was > 100 µM and the TGI [41] was > 100 µM. For the same compound, the TGI [43] was > 100 µM, the TGI [58] was > 100 µM and the TGI [44] was > 100 µM. The TGI [45] was > 100 µM, the TGI [46] was 75.1 µM and the TGI [47] was > 100 µM. For the same compound, the TGI [48] was > 100 µM, the TGI [49] was > 100 µM and the TGI [50] was > 100 µM. For the same compound, the TGI [53] was > 100 µM.
